Results reported in publication PMC9124820, “In vitro evaluation of fenfluramine and norfenfluramine as victims of drug interactions” (Pharmacology Research & Perspectives, 2022).

Tests used:
rCYP1A2 = molecular target: T1, rCYP1A2 (Homo sapiens, UniProt P05177); assay: Reaction phenotyping with rCYP1A2; assay type: in vitro ADME
T1 construct: purchased Cypex, Ltd; host or cells: Escherichia coli
T1 sequence (P05177 1-516): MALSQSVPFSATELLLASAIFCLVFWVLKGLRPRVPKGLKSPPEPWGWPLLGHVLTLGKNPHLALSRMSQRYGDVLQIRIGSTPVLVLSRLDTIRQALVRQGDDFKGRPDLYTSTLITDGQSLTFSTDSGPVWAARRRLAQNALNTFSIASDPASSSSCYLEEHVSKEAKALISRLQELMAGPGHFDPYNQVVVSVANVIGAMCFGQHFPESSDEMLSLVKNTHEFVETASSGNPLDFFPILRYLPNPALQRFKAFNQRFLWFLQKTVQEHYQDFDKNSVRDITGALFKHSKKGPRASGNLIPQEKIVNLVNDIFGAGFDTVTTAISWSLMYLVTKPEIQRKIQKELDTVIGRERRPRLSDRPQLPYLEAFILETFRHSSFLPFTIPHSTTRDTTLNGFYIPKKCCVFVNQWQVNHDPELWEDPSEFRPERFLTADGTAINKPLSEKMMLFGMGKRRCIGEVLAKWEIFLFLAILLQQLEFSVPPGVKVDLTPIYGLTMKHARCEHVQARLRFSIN
Experimental: (§1) For FFA and nFFA reaction phenotyping experiments, LC‐MS/MS experiments were performed using an API 4000 QTRAP or QTRAP 5500 mass spectrometer (SCIEX) with positive electrospray ionization. Chromatography was performed using an Atlantis dC18 analytical column (100 × 2.1 mm, 5 µm; Waters Corporation). Mobile phases were 0.2% v/v formic acid in water and 0.2% v/v formic acid in methanol. FFA and nFFA were eluted at a flow rate of 0.5 mL/min with a linear gradient of 40%−95% methanol from 0.20−2.1 min. The mass transitions monitored were 232.0>109.0 for FFA, 204.0>159.0 for nFFA, 348.0>330.0 for 1’‐hydroxymidazolam‐d4 internal standard (FFA reaction phenotyping), and 262.0>244.0 for hydroxybupropion‐d6 internal standard (nFFA reaction phenotyping). Analyst Instrument Control and Data Processing software (v. 1.6.1) was used for collecting and integrating data (SCIEX). Calibration curves ranging from 1.25 µM−0.01 µM were used to quantify nFFA. Relative quantitation was used to approximate the amount of FFA test material used.
(§2) Methods used to evaluate the role of CYP450s in the metabolism of FFA have been described.[22], [23], [24] […] Supernatant fractions were analyzed by LC‐MS/MS.

rCYP2C19 = molecular target: T2, rCYP2C19 (Homo sapiens, UniProt P33261); assay: Reaction phenotyping with rCYP2C19; assay type: in vitro ADME; settings: rCYP2C19, 60 min
T2 construct: purchased Cypex, Ltd; host or cells: Escherichia coli
T2 sequence (P33261 whole entry): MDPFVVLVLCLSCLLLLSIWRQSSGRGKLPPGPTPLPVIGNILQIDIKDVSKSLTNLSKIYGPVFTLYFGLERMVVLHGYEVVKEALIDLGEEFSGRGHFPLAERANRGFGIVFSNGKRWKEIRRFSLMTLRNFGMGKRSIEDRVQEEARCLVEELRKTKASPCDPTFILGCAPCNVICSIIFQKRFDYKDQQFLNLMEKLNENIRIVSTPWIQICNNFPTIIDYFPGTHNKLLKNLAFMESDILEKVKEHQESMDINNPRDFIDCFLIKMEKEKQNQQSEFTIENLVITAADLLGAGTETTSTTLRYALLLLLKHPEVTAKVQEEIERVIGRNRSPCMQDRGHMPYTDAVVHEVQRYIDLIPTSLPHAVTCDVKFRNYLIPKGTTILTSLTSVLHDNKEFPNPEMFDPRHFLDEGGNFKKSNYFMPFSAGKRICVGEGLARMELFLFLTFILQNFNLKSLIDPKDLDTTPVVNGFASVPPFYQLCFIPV
Experimental: as §1, §2

For `CCNC(C)Cc1cccc(C(F)(F)F)c1` (racemic) [FFA, (RS)‐ethyl (α‐methyl‐3‐trifluoromethylphenethyl)amine], the “Disappearance of FFA” value (rCYP1A2; 1 μM FFA, 25 pmol rCYP1A2, 60 min) was 23%, the FFA loss (rCYP1A2; 10 μM FFA, rCYP1A2, 60 min) was 22% and the “Disappearance of FFA” value (rCYP2C19; 1 μM FFA) was 49%. It also gave an FFA loss (rCYP2C19; 10 μM FFA) of 50%.
